This is an account of results in patent publication US20240307393A1, “PHARMACEUTICAL COMPOSITION FOR CANCER PREVENTION OR TREATMENT, COMPRISING CDK4/6 INHIBITOR AND TRICYCLIC ANTIDEPRESSANT” (priority 2021, published 2024).

Data set [1] deals with lung cancer cell line H460. Put plainly: WST-1 cancer cell killing (cell survival) test in lung cancer cell line H460. In kind it is cell-based. The note with it: 48 hours; for Cell survival rate (%) Combined treatment with abemaciclib: antidepressant at Table 1 concentration combined with 4 μM abemaciclib; for Cell survival rate (%) Combined treatment with palbociclib: antidepressant at Table 1 concentration combined with 15 μM palbociclib; for Cell survival rate (%) Combined treatment with ribociclib: antidepressant at Table 1 concentration combined with 50 μM ribociclib; for Cell survival rate (%) Treatment with antidepressants alone: imipramine 100, clomipramine 40, desipramine 50, amitriptyline 45, imipramine blue 0.5 μM (Table 1). Background: Formazan colour is commonly taken as a measure of viable cells.
Experimental: (§2) This experiment was conducted on the lung cancer cell line H460, the colorectal cancer cell line HCT116, and the breast cancer cell line MCF7. […] The cell lines H460 and MCF7 were cultured using RPMI1640 medium containing 10% FBS and 1% penicillin-streptomycin, and the cell line HCT116 was cultured using McCoy's 5A medium containing 10% FBS and 1% penicillin-streptomycin.
(§3) The cell lines H460, HCT116 and MCF7 were cultured at 3×10^3 cells/well in a 96 well plate. The next day, each drug was prepared at the concentrations shown in Tables 1 and 2, mixed with the medium, and then added to each well and left for 48 hours. After 48 hours, 10 ul/well of WST-1 reagent was added thereto and reacted for 1 hour. Samples reacted with WST-1 were analyzed by ELISA at 450 nM, and the same conditions were repeated three times to calculate the average value and standard error.

Data set [2] deals with colorectal cancer cell line HCT116. As to the kind of experiment: WST-1 cancer cell killing (cell survival) test in colorectal cancer cell line HCT116. The class given is cell-based, human. To be noted: 48 hours; for Cell survival rate (%) Combined treatment with abemaciclib: antidepressant at Table 1 concentration combined with 0.2 μM abemaciclib; for Cell survival rate (%) Combined treatment with palbociclib: antidepressant at Table 1 concentration combined with 5 μM palbociclib; for Cell survival rate (%) Combined treatment with ribociclib: antidepressant at Table 1 concentration combined with 20 μM ribociclib; for Cell survival rate (%) Treatment with antidepressants alone: imipramine 100, clomipramine 40, desipramine 20, amitriptyline 25, imipramine blue 0.4 μM (Table 1).
Experimental: as §2, §3

The subject of data set [3] is breast cancer cell line MCF7. Put plainly: WST-1 cancer cell killing (cell survival) test in breast cancer cell line MCF7. The note with it: 48 hours; for Cell survival rate (%) Combined treatment with abemaciclib: antidepressant at Table 1 concentration combined with 10 μM abemaciclib; for Cell survival rate (%) Combined treatment with palbociclib: antidepressant at Table 1 concentration combined with 20 μM palbociclib; for Cell survival rate (%) Combined treatment with ribociclib: antidepressant at Table 1 concentration combined with 30 μM ribociclib; for Cell survival rate (%) Treatment with antidepressants alone: imipramine 50, clomipramine 20, desipramine 50, amitriptyline 50, imipramine blue 0.1 μM (Table 1). The class given is cell-based. On the procedure:
This experiment was conducted on the lung cancer cell line H460, the colorectal cancer cell line HCT116, and the breast cancer cell line MCF7. As for the genetic characteristics of each cell line, the lung cancer cell line H460 has a KRAS mutation [p.Q61H], the colorectal cancer cell line HCT116 has a KRAS mutation [p.G13D], and the breast cancer cell line MCF7 has the characteristic of being positive for estrogen receptor and progesterone receptor but negative for HER2. The cell lines H460 and MCF7 were cultured using RPMI1640 medium containing 10% FBS and 1% penicillin-streptomycin, and the cell line HCT116 was cultured using McCoy's 5A medium containing 10% FBS and 1% penicillin-streptomycin.
Specifically, abemaciclib, ribociclib and palbociclib were used as CDK4/6 inhibitors, and DMSO was used as a solvent to prepare the drug stock. […] Each drug was used after diluting to the concentrations shown in Table 1 (antidepressant concentration used (μM)) and Table 2 (CDK4/6 inhibitor concentration used (μM)) below.
The cell lines H460, HCT116 and MCF7 were cultured at 3×10^3 cells/well in a 96 well plate. The next day, each drug was prepared at the concentrations shown in Tables 1 and 2, mixed with the medium, and then added to each well and left for 48 hours. After 48 hours, 10 ul/well of WST-1 reagent was added thereto and reacted for 1 hour. Samples reacted with WST-1 were analyzed by ELISA at […], and the same conditions were repeated three times to calculate the average value and standard error.

Data set [4] has as its system colorectal cancer cell line HCT116 subcutaneous tumor. As to the kind of experiment: Tumor growth inhibition in HCT116 subcutaneous tumor model. Also on record: reference not given here. The note with it: HCT116 subcutaneous tumor in nude mice, desipramine 20 mg/kg intraperitoneally, abemaciclib 30 mg/kg orally, once a day. In kind it is in vivo, nude mice (Balb/c nude). On the procedure: To evaluate the anti-tumor effect, the tumor size was measured every day until day 14 after treatment, and the differences between each group were analyzed. The tumor size was calculated as follows: V (mm^3)=1/2×long axis (mm)×short axis (mm)×height (mm). By day 14, the tumor size was measured, a tumor growth graph was created, and the tumor size between each group was compared and analyzed.

Data set [5] can be described thus: Toxicity evaluation: hematoxylin and eosin histology of major normal organs. In kind it is in vivo, nude mice (Balb/c nude). The note with it: day 14; hematoxylin and eosin staining; desipramine 20 mg/kg intraperitoneally, abemaciclib 30 mg/kg orally, once a day. The procedure:
(§1) Specifically, the human colorectal cancer cell line HCT116 was purchased from the American Type Culture Collection (ATCC, USA) and cultured in McCoy's 5A medium containing 10% fetal bovine serum (FBS) and penicillin-streptomycin under conditions of 37° C., 5% carbon dioxide and standard humidity.

The nature of data set [6]: Toxicity evaluation: body weight for 14 days. The class given is in vivo, nude mice (Balb/c nude). To be noted: measured for 14 days; desipramine 20 mg/kg intraperitoneally, abemaciclib 30 mg/kg orally, once a day. On the procedure:
as §1

`CN(C)CCCN1c2ccccc2CCc2ccccc21` [Imipramine]: in data set [1], the “Cell survival rate (%) Combined treatment with abemaciclib” value is 20%, the “Cell survival rate (%) Combined treatment with palbociclib” value is listed as 53% and the “Cell survival rate (%) Combined treatment with ribociclib” value is 47%. In data set [2], the “Cell survival rate (%) Combined treatment with abemaciclib” value is listed as 58%, the “Cell survival rate (%) Combined treatment with palbociclib” value stood at 41% and the “Cell survival rate (%) Combined treatment with ribociclib” value came to 39%. Moreover, in data set [3], the “Cell survival rate (%) Combined treatment with abemaciclib” value amounted to 34%, the “Cell survival rate (%) Combined treatment with palbociclib” value worked out at 53% and the “Cell survival rate (%) Combined treatment with ribociclib” value was 55%.

As for `CCN(CC)c1ccc(C(c2ccc(N(CC)CC)cc2)=c2ccc3c(c2)CCc2ccccc2[N+]=3CCCN(C)C)cc1` [Imipramine blue], in data set [1], the “Cell survival rate (%) Combined treatment with abemaciclib” value was found to be 50%, the “Cell survival rate (%) Combined treatment with palbociclib” value amounted to 36%, the “Cell survival rate (%) Combined treatment with ribociclib” value was found to be 36% and the “Cell survival rate (%) Treatment with antidepressants alone” value (“Cell survival rate (%) Treatment” for short) was determined as 62%. Moreover, in data set [2], the “Cell survival rate (%) Combined treatment with abemaciclib” value came to 39%, the “Cell survival rate (%) Combined treatment with palbociclib” value was 43%, the “Cell survival rate (%) Combined treatment with ribociclib” value was found to be 31% and the “Cell survival rate (%) Treatment” value is 53%. In addition, in data set [3], the “Cell survival rate (%) Combined treatment with abemaciclib” value is listed as 43%, the “Cell survival rate (%) Combined treatment with palbociclib” value came out at 59%, the “Cell survival rate (%) Combined treatment with ribociclib” value turned out to be 60% and the “Cell survival rate (%) Treatment” value is recorded as 88%.

On to `CN(C)C(=O)c1cc2cnc(Nc3ccc(N4CCNCC4)cn3)nc2n1C1CCCC1` [ribociclib], for which the “lung cancer cell survival rate, ribociclib alone” value in data set [1] (50 μM ribociclib alone, WST-1) came to 72%. For the same compound, the “colorectal cancer cell survival rate, ribociclib alone” value in data set [2] (20 μM ribociclib alone, WST-1) is recorded as 73%. Moreover, in data set [3] (30 μM ribociclib alone, WST-1), the “breast cancer cell survival rate, ribociclib alone” value was 80%.

In the case of `CCN1CCN(Cc2ccc(Nc3ncc(F)c(-c4cc(F)c5nc(C)n(C(C)C)c5c4)n3)nc2)CC1` [abemaciclib], the “lung cancer cell survival rate, abemaciclib alone” value in data set [1] (4 μM abemaciclib alone, WST-1) was 71%. In addition, in data set [2] (0.2 μM abemaciclib alone, WST-1), the “colorectal cancer cell survival rate, abemaciclib alone” value is 87%. The “breast cancer cell survival rate, abemaciclib alone” value in data set [3] (10 μM abemaciclib alone, WST-1) is reported as 59%. The “tumor size on day 14” value in data set [4] stood at 54.6%. The “histological changes of major organs (heart, lung, liver, spleen, kidney) compared to the control group” value in data set [5] is “no histological changes”. In data set [6], the “body weight difference between groups” value was “no significant difference in body weight”.

Take `CN(C)CCC=C1c2ccccc2CCc2ccccc21` [Amitriptyline]: in data set [1], the “Cell survival rate (%) Combined treatment with abemaciclib” value was 50%, the “Cell survival rate (%) Combined treatment with palbociclib” value worked out at 58%, the “Cell survival rate (%) Combined treatment with ribociclib” value came out at 32% and the “Cell survival rate (%) Treatment” value is 65%. Further, in data set [2], the “Cell survival rate (%) Combined treatment with abemaciclib” value is 64%, the “Cell survival rate (%) Combined treatment with palbociclib” value is 54%, the “Cell survival rate (%) Combined treatment with ribociclib” value was determined as 46% and the “Cell survival rate (%) Treatment” value was determined as 86%. Further, in data set [3], the “Cell survival rate (%) Combined treatment with abemaciclib” value was determined as 21%, the “Cell survival rate (%) Combined treatment with palbociclib” value is 45%, the “Cell survival rate (%) Combined treatment with ribociclib” value turned out to be 28% and the “Cell survival rate (%) Treatment” value came to 63%.

Turning to `CNCCCN1c2ccccc2CCc2ccccc21` [Desipramine], in data set [1], the “Cell survival rate (%) Combined treatment with abemaciclib” value worked out at 24%, the “Cell survival rate (%) Combined treatment with palbociclib” value amounted to 14%, the “Cell survival rate (%) Combined treatment with ribociclib” value amounted to 16% and the “Cell survival rate (%) Treatment” value was determined as 40%. In data set [2], the “Cell survival rate (%) Combined treatment with abemaciclib” value is 28%, the “Cell survival rate (%) Combined treatment with palbociclib” value came to 44%, the “Cell survival rate (%) Combined treatment with ribociclib” value amounted to 29% and the “Cell survival rate (%) Treatment” value turned out to be 71%. Also, the “Cell survival rate (%) Treatment” value in data set [3] came out at 60%. Further, the “tumor size on day 14” value in data set [4] was 75.2%. In addition, in data set [5], the “histological changes of major organs (heart, lung, liver, spleen, kidney) compared to the control group” value is “no histological changes”. The “body weight difference between groups” value in data set [6] is recorded as “no significant difference in body weight”.

For `CC(=O)c1c(C)c2cnc(Nc3ccc(N4CCNCC4)cn3)nc2n(C2CCCC2)c1=O` [palbociclib], the “lung cancer cell survival rate, palbociclib alone” value in data set [1] (15 μM palbociclib alone, WST-1) was found to be 67%. Moreover, the “colorectal cancer cell survival rate, palbociclib alone (HCT116 section)” value in data set [2] (5 μM palbociclib alone, WST-1) was 79%. Besides, the “breast cancer cell survival rate, palbociclib alone” value in data set [3] (20 μM palbociclib alone, WST-1) stood at 75%.

On to `CN(C)CCCN1c2ccccc2CCc2ccc(Cl)cc21` [Clomipramine], for which, in data set [1], the “Cell survival rate (%) Combined treatment with abemaciclib” value is listed as 20%, the “Cell survival rate (%) Combined treatment with palbociclib” value is 33%, the “Cell survival rate (%) Combined treatment with ribociclib” value worked out at 34% and the “Cell survival rate (%) Treatment” value is listed as 65%. Also, in data set [2], the “Cell survival rate (%) Combined treatment with abemaciclib” value is recorded as 32%, the “Cell survival rate (%) Combined treatment with palbociclib” value is given as 34%, the “Cell survival rate (%) Combined treatment with ribociclib” value was determined as 23% and the “Cell survival rate (%) Treatment” value was 65%. In data set [3], the “Cell survival rate (%) Combined treatment with abemaciclib” value was 37%, the “Cell survival rate (%) Combined treatment with palbociclib” value is 43%, the “Cell survival rate (%) Combined treatment with ribociclib” value was 56% and the “Cell survival rate (%) Treatment” value is 81%.
